Values of other authors, collected in patent publication US12285410B2, “Combination comprising HDAC inhibitor and CD137 agonist for cancer therapy” (4SC AG, priority 2018, dated 2025).

What was measured:
[1] = system: different types of blood cancer; details: 24 heavily pre-treated patients

Row | Compound | immunologic and pharmacodynamic activity (at 0.1 mg/kg every 3 weeks) | tolerability (at 0.1 mg/kg every 3 weeks) | treatment-related AE: fatigue (at 0.1 mg/kg every 3 weeks) | treatment-related AE: nausea (at 0.1 mg/kg every 3 weeks) | maximum tolerated dose (every 3 weeks) | complete remission (one patient), duration [1] | disease control, share of patients [1] | long-term stabilization, share of patients [1] | partial responder (one patient), duration [1] | tolerability [1]
1 | Urelumab | immunologic and pharmacodynamic activity demonstrated by the induction of IFN-inducible genes and cytokines | relatively well tolerated | 16% | 13% | 0.1 mg/kg | – | – | – | – | –
2 | Cn1cc(-c2ccc(S(=O)(=O)n3ccc(/C=C/C(=O)Nc4ccccc4N)c3)cc2)cn1 [Compound 4SC-202, (E)-N-(2-aminophenyl)-3-(1-((4-(1-methyl-1H-pyrazol-4-yl)phenyl)sulfonyl)-1H-pyrrol-3-yl)acrylamide] | – | – | – | – | – | 28 months | 83% | 50% | 8 months | well tolerated with few and/or manageable adverse events
